Experimental data reported in patent publication US20210139477A1, “ALK5 INHIBITORS, CONJUGATES, AND USES THEREOF” (Silverback Therapeutics, Inc., priority 2019, published 2021).

molecular target: T1, ALK5 (Homo sapiens, UniProt P36897); assay: ALK5 enzyme inhibition assay (Reaction Biology Corp, 33P-ATP filter-binding, casein substrate); assay type: biochemical; conditions: 10 uM ATP, 2 hours at room temperature
T1 construct: purchased Reaction Biology Corp (Malvern, Pa.)
T1 sequence (P36897 34-503): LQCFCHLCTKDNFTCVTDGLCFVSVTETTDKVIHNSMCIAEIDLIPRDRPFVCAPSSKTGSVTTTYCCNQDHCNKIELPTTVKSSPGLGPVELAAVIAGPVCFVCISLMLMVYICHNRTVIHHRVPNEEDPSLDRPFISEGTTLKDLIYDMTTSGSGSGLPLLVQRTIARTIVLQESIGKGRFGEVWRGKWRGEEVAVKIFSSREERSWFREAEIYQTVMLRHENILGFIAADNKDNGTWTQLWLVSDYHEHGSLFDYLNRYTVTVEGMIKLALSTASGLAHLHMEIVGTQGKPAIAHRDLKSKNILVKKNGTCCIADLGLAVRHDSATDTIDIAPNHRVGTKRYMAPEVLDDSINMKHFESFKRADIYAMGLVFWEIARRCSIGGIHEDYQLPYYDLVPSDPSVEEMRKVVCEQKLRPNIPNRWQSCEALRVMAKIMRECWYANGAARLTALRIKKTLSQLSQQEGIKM
Description: ALK5 enzyme inhibition assays were performed by Reaction Biology Corp (Malvern, Pa.). 1 mg/mL of peptide substrate (casein) and 10 uM ATP were prepared in a mixture of fresh reaction buffer. The kinase was delivered into the substrate solution which was gently mixed. Compounds in 100% DMSO were added to the kinase reaction mixture by Acoustic technology (Echo550; nanoliter range) and the mixture was incubated for 20 min at room temperature. ^33P-ATP (Specific activity 10 uCi/uL) was added into the reaction mixture to initiate the reaction and the reaction mixture was incubated for 2 hours at room temperature. Radioactivity was detected by filter-binding method and kinase activity data were expressed as the percent remaining kinase activity in test samples compared to vehicle (dimethyl sulfoxide) reactions. IC50 values and curve fits were obtained using Prism (GraphPad Software).

First: Cc1cccc(-c2nc(CN[C@@H](C)c3ccccc3)[nH]c2-c2ccc3ncnn3c2)n1 [Compound 12]
Second: COC(=O)[C@@H](NCc1nc(-c2cccc(C)n2)c(-c2ccc3ncnn3c2)[nH]1)c1ccccc1 [Compound 16]
The IC50 of the first is higher: 1000 to 10000 nM for the first, 0.1 to 50 nM for the second.

system: TGFb/SMAD Signaling Pathway SBE reporter cell line; assay: TGFb reporter assay (TGFb/SMAD Signaling Pathway SBE luciferase reporter cell line); assay type: cell-based; conditions: 5-6 h preincubation, then TGFb, 18 h, luciferase luminescence
Description: TGFβ/SMAD Signaling Pathway SBE reporter cell line was obtained from BPS Bioscience. Cells were passed, expanded, and stored in liquid nitrogen as per the supplier's instructions with the exception that growth media is changed to DMEM-C with Geneticin (DMEM supplemented with 10% fetal bovine serum, 1×NEAA, 1 mM Pyruvate, 2 mM glutamine, 50 μg/mL penicillin, 50 U/mL streptomycin and 400 μg/mL of Geneticin). The assay media was MEM supplemented with 0.5% fetal bovine serum, 1×NEAA, 1 mM Pyruvate, 50 μg/mL penicillin and 50 U/mL streptomycin.
TGFb/SMAD Signaling Pathway SBE reporter cell line was obtained from BPS Bioscience. Cells were passed/expanded/stored in liquid nitrogen per supplier's instruction with the exception that growth media was changed to DMEM-C with Geneticin (DMEM supplemented with 10% fetal bovine serum, IX NEAA, 1 mM Pyruvate, 2 mM glutamine, 50 μg/mL penicillin, 50 U/mL streptomycin and 400 ug/mL of Geneticin). The assay media was MEM supplemented with 0.5% fetal bovine serum, IX NEAA, 1 mM Pyruvate, 50 μg/mL penicillin and 50 U/mL streptomycin.
Reporter cells were harvested from the tissue culture flasks by incubation in small quantity of Versene at room temperature for three to five minutes after the media in the flask was removed and cells rinsed with PBS. Cells were counted and diluted in the assay media at 0.8×10^6 cells/mL then 50 uL/well were added to 96-well assay plate. Test samples (at desired concentrations diluted in assay media) were added to assay plate containing the 50 uL/well of cells (or media only), 50 uL per well, and incubated for 5-6 hours at 37° C. in a 5% CO2 humidified incubator. After that time, 15 uL of TGFb diluted to 12.5 ng/mL in the assay media was added to the plate. Controls included TGFb titration (from 25 to 0 ng/mL) without inhibitors, and media only (without cells, inhibitor or TGFb). Plates were incubated at 37° C. in a […] humidified incubator for 18 h. Luciferase substrate solution was subsequently added at 75 uL per well, incubated in dark with shaking at room temperature for 10 min, and luminescence was measured using a luminometer.

`Cc1cccc(-c2nc(CN[C@@H](C)c3ccccc3)[nH]c2-c2ccc3ncnn3c2)n1` [Compound 12] and `COC(=O)[C@@H](NCc1nc(-c2cccc(C)n2)c(-c2ccc3ncnn3c2)[nH]1)c1ccccc1` [Compound 16] fall in the same range of EC50: 100 to 1000 nM for the first, 100 to 1000 nM for the second.

`Cc1cccc(-c2nc(CNCc3ccccc3-c3ccccc3)[nH]c2-c2ccc3nccnc3c2)n1` [Compound 72] and `Cc1cccc(-c2nc(CNCc3ccccc3-c3ccccc3)[nH]c2-c2ccc3ncccc3c2)n1` [Compound 91] fall in the same range of EC50: 10 to 100 nM for the first, 10 to 100 nM for the second.

Compared with `Cc1cccc(-c2nc(CNCc3ccccc3)[nH]c2-c2ccc3ncccc3n2)n1` [Compound 73], `Cc1cccc(-c2nc(CNCc3ccccc3C)[nH]c2-c2ccc3ncccc3n2)n1` [Compound 83] is lower in EC50: 100 to 1000 nM for the first, 0.1 to 10 nM for the second. The second is the more potent here.

Compared with `Cc1cccc(-c2nc(CNCc3ccccc3)[nH]c2-c2ccnc3ccccc23)n1` [Compound 74], `Cc1cccc(-c2nc(CNCc3ccccc3)[nH]c2-c2ccc3ncccc3c2)n1` [Compound 90] is lower in EC50: 100 to 1000 nM for the first, 0.1 to 10 nM for the second. The second is the more potent here.

First: Cc1cccc(-c2nc(CNCc3ccccc3)[nH]c2-c2ccccn2)n1 [Compound 75]
Second: Cc1cccc(-c2nc(CNCc3ccccc3)[nH]c2-c2ccc3nccnc3c2)n1 [Compound 77]
The EC50 of the first is higher: 100 to 1000 nM for the first, 0.1 to 10 nM for the second.

`Cc1cccc(-c2nc(CNCc3ccccc3)[nH]c2-c2ccc3c(c2)OCO3)n1` [Compound 76] and `Cc1cccc(-c2nc(CNCCc3c(F)cccc3F)[nH]c2-c2ccc3c(c2)OCO3)n1` [Compound 81] fall in the same range of EC50: 10 to 100 nM for the first, 10 to 100 nM for the second.

`Cc1cccc(-c2nc(CNCCc3c(F)cccc3F)[nH]c2-c2ccc3ncccc3n2)n1` [Compound 78] and `Cc1cccc(-c2nc(CNCCc3c(F)cccc3F)[nH]c2-c2ccc3nccnc3c2)n1` [Compound 82] fall in the same range of EC50: 0.1 to 10 nM for the first, 0.1 to 10 nM for the second.

`Cc1cccc(-c2nc(CNCCc3c(F)cccc3F)[nH]c2-c2ccnc3ccccc23)n1` [Compound 79] and `Cc1cccc(-c2nc(CNCCc3c(F)cccc3F)[nH]c2-c2ccncc2)n1` [Compound 80] fall in the same range of EC50: 100 to 1000 nM for the first, 100 to 1000 nM for the second.

`COc1ccccc1CCNCc1nc(-c2cccc(C)n2)c(-c2ccc3ncccc3n2)[nH]1` [Compound 84] and `COc1ccccc1CCNCc1nc(-c2cccc(C)n2)c(-c2ccc3nccnc3c2)[nH]1` [Compound 87] fall in the same range of EC50: 0.1 to 10 nM for the first, 0.1 to 10 nM for the second.

`Cc1cccc(-c2nc(CNCCN(C)c3ccccc3)[nH]c2-c2ccc3ncccc3n2)n1` [Compound 85] and `Cc1cccc(-c2nc(CNCCN(C)c3ccccc3)[nH]c2-c2ccc3nccnc3c2)n1` [Compound 88] fall in the same range of EC50: 0.1 to 10 nM for the first, 0.1 to 10 nM for the second.

Compound `Cc1cccc(-c2nc(CNCc3ccccc3C)[nH]c2-c2ccc3nccnc3c2)n1` [Compound 86] has an EC50 of 0.1 to 10 nM.
